Experimental data reported in patent US20240118281A1, “ANTICANCER COMPOUNDS AND USES THEREOF” (University of Florida Research Foundation, Incorporated, priority 2021, published 2024).

How the values were obtained:
PDIA1 [1] = biological target: T1, PDIA1 (Homo sapiens, UniProt P07237); experiment: In vitro binding assay with recombinant purified PDIA1; details: FIG. 3D
Method: (§1) Purified His6-AGR2 or His6-AGR2 C81S, as prepared above, or His6-AGR2 (PRO-580) or His6-AGR3 (PRO-242) obtained from ProSpec (New Brunswick NJ) were incubated with or without varying concentrations of the unlabeled DDA competitors, tcyDTDO or dMtcyDTDO, and 30 μM Biotin-GlyPyrDTDO or Biotin-PyrDTDO in buffer (20 mM HEPES (pH 7.4), 1 mM EDTA, 1 mM EGTA, 5% Glycerol, 1 nM Microcystin, 1 mM Na3VO4, and 40 mM Na2H2P2O7) containing 1% Triton-X 100 for 30 min at 37° C. […] Therefore, the two probes were used interchangeably. Reactions were stopped by boiling the samples in 2×-SDS-Sample Buffer containing 100 mM NEM for 10 min. Biotin-DDA labeling of protein was verified by blotting with Streptavidin-Alkaline Phosphatase (Rockland Immunochemicals, Inc., Limerick, PA). ERp44 (PRO-547) and PDIA1 (ENZ-262) were obtained from ProSpec and used in experiments examining the binding of these proteins to Biotin-PyrDTDO.

PDIA1 [2] = biological target: T1, PDIA1; experiment: Biotin-PyrDTDO/Streptavidin-agarose pulldown from treated cells; assay type: cell-based; set-up: endogenous in cells; host or cells: MDA-MB-468, BT474, T47D; details: for PDIA1 in Streptavidin-Agarose pulldown: 100 μM, 16 h
Method: (§2) Cells were treated with Biotin-PyrDTDO with or without the pan-Caspase inhibitor Q-VD-OPH (MedChemExpress, Monmouth Junction, NJ) for 16 h in 10% FBS-DMEM, followed by the addition of 25 mM N-ethylmaleimide (NEM) (Thermo Scientific, Rockford, IL) for 20 min at 37° C. Cells were subsequently scraped directly into the media, washed twice with ice-cold PBS, and pelleted by centrifugation. Cells were extracted in buffer (20 mM HEPES (pH 7.4), 1 mM EDTA, 1mM EGTA, 5% Glycerol, 1 nM Microcystin, 1 mM Na3VO4, and 40 mM Na2H2P2O7) containing 1% Triton X-100. Samples were sonicated, followed by centrifugation for 20 min at 4° C. The supernatant was pre-cleared with Sepharose CL-6B (Amersham Biosciences AP, Uppsala, Sweden) for 2 h at 4° C. Pre-cleared samples were then incubated with Streptavidin (SA)-Agarose (Thermo Scientific, Rockford IL) and mixed on a Nutator for 24 h at 4° C. SA-Agarose was washed three times with extraction buffer containing 0.1% Triton X-100, followed by the addition of 2×-SDS Sample buffer containing 2 mM biotin. Samples were analyzed by immunoblot, silver stain, or probing with Streptavidin-Alkaline Phosphatase.

ERp44 [3] = biological target: T2, ERp44 (Homo sapiens, UniProt Q9BS26); experiment: as above; assay type: cell-based; set-up: endogenous in cells; host or cells: MDA-MB-468, BT474, T47D; details: for ERp44 in Streptavidin-Agarose pulldown: 100 μM, 16 h
T2 sequence (Q9BS26 30-406): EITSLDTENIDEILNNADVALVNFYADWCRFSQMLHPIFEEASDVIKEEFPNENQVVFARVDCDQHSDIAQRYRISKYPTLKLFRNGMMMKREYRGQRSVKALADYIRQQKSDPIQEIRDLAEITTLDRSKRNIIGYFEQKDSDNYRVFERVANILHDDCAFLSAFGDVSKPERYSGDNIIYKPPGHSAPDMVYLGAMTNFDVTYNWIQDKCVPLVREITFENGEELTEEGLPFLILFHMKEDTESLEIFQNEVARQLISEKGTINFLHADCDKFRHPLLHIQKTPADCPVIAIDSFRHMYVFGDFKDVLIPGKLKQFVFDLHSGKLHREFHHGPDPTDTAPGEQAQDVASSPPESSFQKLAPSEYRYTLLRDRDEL
Method: as §2

ERp57 = biological target: T3, ERp57 (Homo sapiens, UniProt P30101); experiment: as above; assay type: cell-based; details: FIG. 10A
T3 construct: endogenous in cells
Method: as §2

ERp5 = biological target: T4, ERp5 (Homo sapiens, UniProt Q15084); experiment: as above; assay type: cell-based; details: FIG. 10A
T4 construct: endogenous in cells
Method: as §2

ERp44 [4] = biological target: T2, ERp44; experiment: In vitro binding assay with recombinant purified ERp44; details: FIG. 3D
Method: as §1

[5] = test system: proteins in intact cells and purified proteins in vitro; experiment: Preliminary studies of biotinylated DDA protein labeling
Method: as §1

AGR2 [6] = biological target: T5, AGR2 (Homo sapiens, UniProt O95994); experiment: Biotin-PyrDTDO/Streptavidin-agarose pulldown from treated cells; assay type: cell-based; set-up: expressed in transfected cells; details: T47D and BT474 cells, 100 μM, 16 h, FIG. 3C left
T5 sequence (O95994 21-175): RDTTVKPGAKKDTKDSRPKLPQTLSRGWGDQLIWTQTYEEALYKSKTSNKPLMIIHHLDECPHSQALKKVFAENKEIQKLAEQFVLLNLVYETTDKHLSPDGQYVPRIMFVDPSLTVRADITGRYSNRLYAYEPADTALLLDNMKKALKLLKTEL
Method: as §2

[7] = test system: MDA-MB-468 and BT474 cells; experiment: Immunoblot analysis of treated cells (FIG. 9D); assay type: cell-based; details: 24 h
Source text: The BT20, BT474, BT549, MCF7, MDA-MB-231, MDA-MB-436, MDA-MB-468, HCC1143, HCC1500, HCC1569, HCC1937, HCC1954, Hs578t, and T47D cells lines were purchased from American Type Culture Collection (ATCC) (Manassas, VA). The HCI-001 cell line was derived from an ER-/PR-/HER2- patient-derived xenograft originally isolated from a patient as described previously (DeRose Y S, et al. Nat Med 2011; 17: 1514-1520). The HCI-001/LVM2 model was derived from the HCI-001 cell line by performing two rounds of selection for liver metastasis, as described previously (Wang M, et al. Cell Death Discovery 2019; 5: 153). Cell lines were grown in Dulbecco's Modified Eagle's Medium (GE Healthcare Life Sciences, Logan, UT) containing 10% fetal bovine serum (10% FBS—DMEM) in a humidified incubator with 5% CO2 at 37° C. Cell lysates were prepared as described previously (Law B K, et al. Mol Cell Biol. 2002; 22: 8184-8198). […]

AGR3 = biological target: T6, AGR3 (Homo sapiens, UniProt Q8TD06); experiment: DDA binding assay with AGR3; details: FIG. 2D
T6 construct: His6 (N); purchased ProSpec PRO-242
Method: as §1

AGR2 [8] = biological target: T5, AGR2; experiment: DDA-AGR2 binding assay, Streptavidin-Alkaline Phosphatase blot; set-up: made in house; host or cells: E. coli BL21(DE3), pET-45b(+); details: 37° C., non-reducing SDS-PAGE, FIG. 2B
Method: Competent BL21(DE3) cells were transformed with either the AGR2/pET-45b(+) or AGR2 C81S/pET-45b(+) vectors. Protein expression was induced by the addition of 50 µM Isopropyl β-D-1-thiogalactopyranoside (Fisher Scientific, Fair Lawn, NJ) to bacterial cell cultures for 2.5 hours and shaking at 37° C. Bacterial cells were subsequently pelleted and dissolved in Mouse Tonicity Phosphate Buffered Saline (MTPBS) containing 1% Triton X-100 and sonicated for 20 seconds on ice, followed by centrifugation for 10 min at 4° C. to pellet cell debris. The supernatant was transferred to a new tube, followed by the addition of TALON Resin (Clontech, Mountain View, CA) and mixing on a Nutator for 30 min at 4° C. The TALON Resin was pelleted by centrifugation and washed twice with MTPBS and twice with MTPBS containing 30 mM Imidazole. Protein bound to the TALON Resin was eluted with 400 mM Imidazole and precipitated with 60% saturated ammonium sulfate. The precipitated protein was pelleted by centrifugation, dissolved in MTPBS containing 1 mM DTT and 1 mM EDTA, and subsequently dialyzed against a solution of MTPBS containing 10 μM DTT and 30% Glycerol.
as §1

C81S AGR2 mutant = biological target: T7, C81S AGR2 mutant (Homo sapiens, UniProt O95994, C81S); experiment: DDA-AGR2 binding assay, C81S mutant; details: FIG. 2D
T7 construct: made in house; host or cells: E. coli BL21(DE3), pET-45b(+)
Method: Total RNA from BT474 cells was extracted with TRIzol Reagent (Invitrogen, Waltham, MA) according to the manufacturer's protocol. Total cellular RNA was used to synthesize first-strand cDNA by using the PCR conditions listed: 25° C. for 10 min, 42° C. for 30 min, and 95° C. for 5 min. PCR was subsequently performed using the following AGR2 primers: 5′-[…]-3′ and 5′-[…]-3′. The PCR fragment encoding AGR2 was subsequently digested with BamHI and SnaBI and cloned into the 5′ BamHI and 3′ SnaBI sites of pMXs-IRES-Blasticidin. The AGR2/pMXs-IRES-Blasticidin vector was used as a template for PCR reactions using the following AGR2 primers to amplify the DNA sequence downstream of the AGR2 signal sequence and to add 5′-BamHI and 3′-SalI sites: 5′-[…]-3′ and 5′-[…]-3′. The PCR fragment was digested with BamHI and SalI and cloned into the 5′ BamHI and 3′ SalI sites of pET-45b(+) (Novagen Burlington, MA). QuikChange mutagenesis was performed to produce the C81S mutation of AGR2 using the follow primers: 5′- […]-3′ and 5′-[…]-3′. The C81S mutation of AGR2 was verified by sequencing.
Competent BL21(DE3) cells were transformed with either the AGR2/pET-45b(+) or AGR2 C81S/pET-45b(+) vectors. Protein expression was induced by the addition of 50 µM Isopropyl β-D-1-thiogalactopyranoside (Fisher Scientific, Fair Lawn, NJ) to bacterial cell cultures for 2.5 hours and shaking at 37° C. […]

[9] = test system: HCI-001/LVM2 breast tumors and associated liver metastases; experiment: HCI-001/LVM2 breast tumor liver metastasis study, H&E staining of livers; assay type: in vivo, mice; details: 20 mg/kg oral gavage once daily, four consecutive days; necrosis not observed in vehicle treated tumors
Method: Breast cancer liver metastasis was initiated in NOD-SCID-gamma (NSG) mice obtained from Jackson Laboratories (Bar Harbor, ME) by injecting 1×10^6 cancer cells into the #4 mammary fat pads as described previously (Wang M, et al. Cell Death Discovery 2019; 5: 153). Mice bearing HCI-001/LVM2 breast tumors were treated once daily for four consecutive days with 20 mg/kg tcyDTDO by oral gavage and livers were collected. Animals bearing HER2+ BT474 tumors were treated with the vehicle or 20 mg/kg dMtcyDTDO or dFtcyDTDO by intraperitoneal injection for four consecutive days. Tissue samples fixed in 4% paraformaldehyde/PBS and paraffin-embedded were sectioned and stained with hematoxylin and eosin (H&E) by the University of Florida Molecular Pathology Core (https://molecular.pathology.ufl.edu/).

[10] = MDA-MB-468 cells, FIG. 3C right
[11] = T47D and BT474 cells, FIG. 3C left

T1 sequence (P07237 18-508): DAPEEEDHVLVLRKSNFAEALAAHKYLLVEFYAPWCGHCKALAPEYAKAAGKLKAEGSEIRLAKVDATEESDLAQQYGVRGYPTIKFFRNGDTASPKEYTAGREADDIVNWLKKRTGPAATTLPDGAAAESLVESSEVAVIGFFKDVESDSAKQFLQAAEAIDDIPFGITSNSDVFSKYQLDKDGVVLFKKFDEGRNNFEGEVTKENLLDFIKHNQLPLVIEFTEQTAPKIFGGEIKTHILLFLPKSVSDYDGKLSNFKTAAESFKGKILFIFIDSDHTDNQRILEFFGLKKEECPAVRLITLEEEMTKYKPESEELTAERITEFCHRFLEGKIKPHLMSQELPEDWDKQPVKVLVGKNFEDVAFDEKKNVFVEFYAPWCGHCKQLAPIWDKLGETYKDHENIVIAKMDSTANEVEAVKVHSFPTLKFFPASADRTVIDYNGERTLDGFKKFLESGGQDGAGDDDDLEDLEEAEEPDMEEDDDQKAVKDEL
T7 sequence (O95994 21-175 C81S): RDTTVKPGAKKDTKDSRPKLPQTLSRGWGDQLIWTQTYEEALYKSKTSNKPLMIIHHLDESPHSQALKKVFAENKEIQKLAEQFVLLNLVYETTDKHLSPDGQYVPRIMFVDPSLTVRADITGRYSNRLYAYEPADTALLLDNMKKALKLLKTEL
T6 sequence (Q8TD06 22-166): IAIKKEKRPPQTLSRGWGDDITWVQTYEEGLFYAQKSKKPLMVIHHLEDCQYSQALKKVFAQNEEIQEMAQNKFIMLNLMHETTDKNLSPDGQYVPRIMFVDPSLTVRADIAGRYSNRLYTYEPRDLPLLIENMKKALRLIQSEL
T3 sequence (P30101 25-505): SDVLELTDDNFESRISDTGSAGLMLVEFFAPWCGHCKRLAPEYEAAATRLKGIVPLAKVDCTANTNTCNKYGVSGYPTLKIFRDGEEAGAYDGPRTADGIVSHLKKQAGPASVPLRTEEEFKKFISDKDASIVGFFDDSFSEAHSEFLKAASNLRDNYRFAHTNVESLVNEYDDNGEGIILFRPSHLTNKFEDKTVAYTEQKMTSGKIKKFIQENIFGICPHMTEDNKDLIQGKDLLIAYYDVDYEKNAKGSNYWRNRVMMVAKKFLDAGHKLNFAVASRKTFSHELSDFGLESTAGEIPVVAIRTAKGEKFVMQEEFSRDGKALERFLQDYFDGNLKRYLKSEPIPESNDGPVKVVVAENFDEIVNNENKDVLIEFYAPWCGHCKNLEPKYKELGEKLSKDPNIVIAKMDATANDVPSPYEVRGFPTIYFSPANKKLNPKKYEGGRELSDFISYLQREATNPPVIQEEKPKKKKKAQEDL
T4 sequence (Q15084 20-440): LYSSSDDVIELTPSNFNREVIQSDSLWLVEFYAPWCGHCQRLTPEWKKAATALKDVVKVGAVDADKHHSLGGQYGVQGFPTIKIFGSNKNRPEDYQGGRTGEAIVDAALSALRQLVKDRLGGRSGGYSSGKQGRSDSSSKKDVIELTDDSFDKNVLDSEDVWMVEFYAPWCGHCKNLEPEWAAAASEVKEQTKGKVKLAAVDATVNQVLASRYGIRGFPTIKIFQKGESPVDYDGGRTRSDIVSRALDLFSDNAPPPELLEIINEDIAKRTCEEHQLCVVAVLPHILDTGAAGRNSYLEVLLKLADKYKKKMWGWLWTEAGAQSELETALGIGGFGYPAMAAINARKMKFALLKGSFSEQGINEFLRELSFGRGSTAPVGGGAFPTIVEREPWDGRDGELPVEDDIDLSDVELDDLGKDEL

## O=C1N[C@H]2[C@H](CS[C@H]2CCCCC(=O)N2C[C@@H]3CS(=O)(=O)SC[C@H]3C2)N1 (mixture of isomers) [Biotin-PyrDTDO, (3aS,4S,6aR)-4-(5-((4aR,7aR) and (4aS,7aS)-2,2-dioxidotetrahydro-1H-[1,2]dithiino[4,5-c]pyrrol-6(4H)-yl)-5-oxopentyptetrahydro-1H-thieno[3,4-d]imidazol-2(3H)-one]
PDIA1 [1]
  Labeling of PDIA1 by biotinylated DDA: labeled ERp44 and PDIA1
PDIA1 [2]; FIG. 10A
  PDIA1 in additional pulldown experiments: detected
PDIA1 [2]; [10]
  PDIA1 in Streptavidin-Agarose pulldown: affinity purified ERp44 and PDIA1
PDIA1 [2]; [11]
  PDIA1 in Streptavidin-Agarose pulldown: isolated
ERp44 [3]; FIG. 10A
  ERp44 in additional pulldown experiments: detected
ERp44 [3]; [10]
  ERp44 in Streptavidin-Agarose pulldown: affinity purified ERp44 and PDIA1
ERp44 [3]; [11]
  ERp44 in Streptavidin-Agarose pulldown: isolated
ERp57
  ERp57 in additional pulldown experiments: ERp57 and ERp5 were not
ERp5
  ERp5 in additional pulldown experiments: ERp57 and ERp5 were not
ERp44 [4]
  Labeling of ERp44 by biotinylated DDA: labeled ERp44 and PDIA1
[5]
  Labeling of proteins, comparison of the two biotinylated probes: indistinguishable labeling of proteins in intact cells and purified proteins in vitro
AGR2 [6]
  AGR2 in Streptavidin-Agarose pulldown: isolated

## CC(C)(C)OC(=O)N1C[C@@H]2CS(=O)(=O)SC[C@H]2C1 (racemic) [(±)-BocPyrDTDO, tert-Butyl-(4aS,7aS)- and (4aR,7aR)-tetrahydro-1H-[1,2]dithiino[4,5-e]pyrrole-6(4H)-carboxylate 2,2-dioxide]
[7]
  Biological activity and potency compared with DTDO: biologically active and showed a potency similar to DTDO

## O=C(CCCC[C@@H]1SC[C@@H]2NC(=O)N[C@@H]21)NCC(=O)N1C[C@@H]2CS(=O)(=O)SC[C@H]2C1 (racemic) [Biotin-GlyPyrDTDO, N-(2-((4aS,7aS)- and (4aR,7aR)-2,2-Dioxidotetrahydro-1H-[1,2]dithiino[4,5-c]pyrrol-6(4H)-yl)-2-oxoethyl)-5-((3aS,4S,6aR)-2-oxohexahydro-1H-thieno[3,4-d]imidazol-4-yl)pentanamide]
AGR3
  Labeling of AGR3 by biotinylated DDA: also labeled
AGR2 [8]
  Labeling of AGR2 by biotinylated DDA: labeled AGR2 in a concentration-dependent manner
C81S AGR2 mutant
  Labeling of C81S AGR2 mutant by biotinylated DDA: not labeled
[5]
  Labeling of proteins, comparison of the two biotinylated probes: indistinguishable labeling of proteins in intact cells and purified proteins in vitro

## O=S1(=O)CC2CCCCC2CS1 (stereo not drawn) [tcyDTDO]
[9]
  Liver metastases, H&E histology: exhibited central necrosis
